Patent US8092816B2, “Insecticidal compositions for control of general household pests” (priority 2004, dated 2012)

Legend:
Format in all cases: in vivo
[1] = system: American cockroach; assay: Example 14: American cockroach knockdown and mortality, bifenthrin and clothianidin
From the text: (§1) The following examples further illustrate the present invention, but, of course, should not be construed as in any way limiting its scope. The examples set forth certain biological data illustrating the efficacy of the compositions of the present invention in controlling general household pests. Each example embodies a separate test wherein the pests were randomly selected from a population at a random age. As a result, from example to example, the ages of the pests can be very different. This age difference potentially translates to different baselines for each example. Therefore, data should only be compared within the example and not from example to example due to the differences in age of the pests from example to example. Unless otherwise indicated, all parts, percentages, and the like are by weight. The spray chamber used in the examples was approximately 76 inches tall, 73 inches long and 31 inches deep with an adjustable shelf (approximately 22 inches deep) and a movable spray nozzle. The spray chambers were calibrated to deliver a volume of approximately 1 gallon of liquid per 1000 square feet of area at about 14 pounds per square inch of pressure. A DeVilbiss hand held sprayer (Atomizer model 152) manufactured by DeVilbiss located in Glendale Heights, Ill. was used in testing house flies and mosquitoes. The DeVilbiss was used to apply approximately 3-5 milliliters of product at about 10 pounds per square inch.
(§2) The compositions of the present invention were tested for American cockroach activity in the following manner:
Test compositions made up of TALSTARONE® MULTI-INSECTICIDE and a 16% a.i. water dispersible granular of clothianidin in distilled water were prepared that provided appropriate rates of application of combinations of bifenthrin and clothianidin, as well as bifenthrin and clothianidin alone.
(§3) The spray chamber was then calibrated to deliver the treatment solution at the desired volume and pressure over the desired area on the chamber shelf. Spray chamber shelf height was adjusted to approximately 18 inches from the spray tip. The shelf was then covered with aluminum foil and the center of the shelf from front-to-back and end-to-end was determined. A desired number of 4.0″ sieve circles were marked on the aluminum foil with a permanent marker. The inside of a desired number of PVC rings were coated with a petroleum jelly/mineral oil mixture (1:2 ratio). The PVC rings were place on the sieve circles. 10 male American cockroaches were placed inside each PVC ring. The sprayer was activated and the test compound was applied to each PVC ring interior. American cockroach knockdown and mortality were measured.

[2] = system: American cockroach; assay: Example 3: American cockroach knockdown and mortality, bifenthrin and imidacloprid
From the text: as §1, §2
(§4) Test compositions made up of TALSTARONE® MULTI-INSECTICIDE and a wettable powder of imidacloprid (MERIT) in distilled water were prepared that provided appropriate rates of application of combinations of bifenthrin and imidacloprid, as well as bifenthrin and imidacloprid alone.
as §3

[3] = system: Oriental cockroach; assay: Example 4: Oriental cockroach knockdown and mortality, bifenthrin and imidacloprid
From the text: as §1
The compositions of the present invention were tested for Oriental cockroach activity in the following manner:
as §4
as §3, with “Oriental” for “American”

[4] = system: House Fly; assay: Example 12: house fly knockdown and mortality, bifenthrin and thiamethoxam (higher thiamethoxam rates)
From the text: as §1
The compositions of the present invention were tested for house fly activity in the following manner:
Test compositions made up of TALSTARONE® MULTI-INSECTICIDE and a water dispersible granular of thiamethoxam (CENTRIC) in distilled water were prepared that provided appropriate rates of application of combinations of bifenthrin and thiamethoxam, as well as bifenthrin and thiamethoxam alone.
A DeVilbiss hand held sprayer was used to deliver the treatment solution at the desired volume and pressure. The house flies to be treated were collected and placed in screened 16 oz paper cups. The hand held sprayer was activated and the test compound was applied to each paper cup interior. House fly knockdown and mortality were measured.

[5] = rate of appln. 10 PPM (0.001% by weight)
[6] = rate of appln. 50 PPM (0.005% by weight)

## Cc1c(COC(=O)[C@@H]2[C@H](/C=C(\Cl)C(F)(F)F)C2(C)C)cccc1-c1ccccc1 (racemic) [A, 2-methylbiphenyl-3-ylmethyl (Z)-(1RS)-cis-3-(2-chloro-3,3,3-trifluoroprop-1-enyl)-2,2-dimethylcyclopropanecarboxylate]
[1]; [5]
  Knockdown Rate @ 10 minute: 0%
  Knockdown Rate @ 15 minute: 0%
  Knockdown Rate @ 30 minute: 0%
  Mortality Rate @ 60 minute: 0%
  Mortality Rate @ 120 minutes: 0%
  Mortality Rate @ 4 hours: 0%
  Mortality Rate @ 1 day: 10%
  Mortality Rate @ 2 days: 30%
[1]; [6]
  Knockdown Rate @ 10 minute: 5%
  Knockdown Rate @ 15 minute: 10%
  Knockdown Rate @ 30 minute: 5%
  Mortality Rate @ 60 minute: 0%
  Mortality Rate @ 120 minutes: 0%
  Mortality Rate @ 4 hours: 35%
  Mortality Rate @ 1 day: 40%
  Mortality Rate @ 2 days: 55%
[2]; 10 PPM, 0.001% by weight
  Knockdown Rate @ 15 minute: 0%
  Knockdown Rate @ 30 minute: 0%
  Mortality Rate @ 60 minutes: 0%
  Mortality Rate @ 120 minutes: 0%
  Mortality Rate @ 4 hours: 5%
  Mortality Rate @ 1 day: 15%
  Mortality Rate @ 2 days: 25%
[2]; 50 PPM, 0.005% by weight
  Knockdown Rate @ 15 minute: 0%
  Knockdown Rate @ 30 minute: 0%
  Mortality Rate @ 60 minutes: 5%
  Mortality Rate @ 120 minutes: 5%
  Mortality Rate @ 4 hours: 10%
  Mortality Rate @ 1 day: 65%
  Mortality Rate @ 2 days: 70%
[3]; 10 PPM, 0.001% by weight
  Knockdown Rate @ 15 minute: 0%
  Knockdown Rate @ 30 minute: 0%
  Mortality Rate @ 60 minute: 0%
  Mortality Rate @ 120 minute: 0%
  Mortality Rate @ 4 hours: 0%
  Mortality Rate @ 1 day: 15%
  Mortality Rate @ 2 days: 15%
[3]; 50 PPM, 0.005% by weight
  Knockdown Rate @ 15 minute: 0%
  Knockdown Rate @ 30 minute: 0%
  Mortality Rate @ 60 minute: 5%
  Mortality Rate @ 120 minute: 5%
  Mortality Rate @ 4 hours: 30%
  Mortality Rate @ 1 day: 70%
  Mortality Rate @ 2 days: 70%
[4]; 10 PPM, 0.001% by weight
  Knockdown Rate @ 15 minute: 0%
  Knockdown Rate @ 30 minute: 0%
  Knockdown Rate @ 45 minutes: 17%
  Knockdown Rate @ 60 minutes: 40%
  Knockdown Rate @ 120 minutes: 63%
  Knockdown Rate @ 4 hours: 50%
  Mortality Rate @ 1 day: 30%
[4]; 50 PPM, 0.005% by weight
  Knockdown Rate @ 15 minute: 0%
  Knockdown Rate @ 30 minute: 78%
  Knockdown Rate @ 45 minutes: 97%
  Knockdown Rate @ 60 minutes: 97%
  Knockdown Rate @ 120 minutes: 97%
  Knockdown Rate @ 4 hours: 97%
  Mortality Rate @ 1 day: 97%
